For three molecules, Activity, IC50 and inhibition results are on record in ChEMBL document CHEMBL3351815, “Synthesis of fluorinated agonist of sphingosine-1-phosphate receptor 1” (Bioorg Med Chem, 2014).

Active and inactive are the calls of the source. The rule behind the calls is not given here.

In assay [1] the target is Sphingosine 1-phosphate receptor 1 (Homo sapiens) (UniProt P21453). Description: Agonist activity at S1P receptor in human PC3 cells assessed as increase in proliferation at 100 nM after 24 hrs by [3H]-thymidine incorporation assay. It counts as cell-based. To be noted: PC-3. (Dividing cells build labelled thymidine or BrdU into new DNA.)
The target is the same in assay [2]. Description: Agonist activity at S1P receptor in human C4-2B cells assessed as increase in proliferation at 100 nM after 24 hrs by [3H]-thymidine incorporation assay. It counts as cell-based.
A short description of assay [3]: Antiproliferative activity against human PC3 cells assessed as reduction in proliferation after 24 hrs by [3H]-thymidine incorporation assay. It counts as functional, cell-based. The following applies: PC-3.
Assay [4] is described as follows: Antiproliferative activity against human C4-2B cells assessed as reduction in proliferation after 24 hrs by [3H]-thymidine incorporation assay. It counts as functional, cell-based. The following applies: LNCaP C4-2B.
Assay [5] deals with PC-3. The experiment in a line: Antiproliferative activity against human PC3 cells assessed as reduction in proliferation at 1 to 10 uM after 24 hrs by MTT assay. It counts as functional, cell-based.
For assay [6], the system named is LNCaP C4-2B. Description: Antiproliferative activity against human C4-2B cells assessed as reduction in proliferation at 1 to 100 uM after 24 hrs by MTT assay. It counts as functional, cell-based. For orientation: Tetrazolium assays rely on reduction of a dye to a coloured formazan, in cell work by metabolically active cells.

The IC50 is the midpoint of a concentration-inhibition curve.

Chain of Sphingosine 1-phosphate receptor 1 (Homo sapiens) (P21453 whole entry): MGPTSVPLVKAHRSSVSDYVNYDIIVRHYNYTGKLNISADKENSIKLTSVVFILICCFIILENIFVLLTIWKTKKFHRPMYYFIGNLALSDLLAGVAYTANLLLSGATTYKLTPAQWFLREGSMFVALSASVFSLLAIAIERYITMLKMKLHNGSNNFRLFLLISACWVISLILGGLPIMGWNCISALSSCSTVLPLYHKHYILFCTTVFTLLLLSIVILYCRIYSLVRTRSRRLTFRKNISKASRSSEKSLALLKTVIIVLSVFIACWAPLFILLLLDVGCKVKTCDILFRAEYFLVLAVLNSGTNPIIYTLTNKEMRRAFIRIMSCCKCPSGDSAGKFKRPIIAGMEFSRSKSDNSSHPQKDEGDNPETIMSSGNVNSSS

As to `CCCCCCCCc1ccc(CCC(N)(CO)COP(=O)(O)O)cc1` (stereo not given), the outcome in assay [1] and in assay [2] was Active.

Regarding `CCCCCCCCCCCCC/C=C/[C@@H](O)[C@@H](N)COP(=O)(O)O`, the result in assay [1] and in assay [2] was Active.

As to `CCCCCCCCc1ccc(CCC(N)CC(F)(F)P(=O)(O)O)cc1` (stereo not given), the outcome in assay [1] and in assay [2] was inactive. Also, the half-maximal inhibitory concentration (IC50) is 20 µM in assay [3] and 3 µM in assay [4]. Further, the inhibition entry in assay [5] and in assay [6] was “Active” each time.
